From PubChem BioAssay AID248 (DTP/NCI, 2004)
“And” between values parts separate entries of the source, which are not always exact repeats. Equal values may be shown once. Toxic doses and inconclusive results are not listed. Rule as the data show it: active = T/C of 150% or more; inactive = T/C below 125%.

System: L1210 leukemia ip in BDF1 mice, survival T/C
Experiment: NCI In Vivo Anticancer Drug Screen. Data for tumor model L1210 Leukemia (intraperitoneal) in B6D2F1 (BDF1) mice
Details: endpoint: mean survival time, higher = longer survival
How it was run: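 Value reflects the ratio of survival in compound-treated mice to survival in vehicle-treated controls, with both groups carrying the same transplanted tumor.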

[1] = dose: 100.0 mg/kg/injection, schedule: Q01DX009 (ip), vehicle: saline
[2] = dose: 50.0 mg/kg/injection, schedule: Q01DX009 (ip), vehicle: saline with Tween-80
[3] = dose: 100.0 mg/kg/injection, schedule: Q01DX009 (ip), vehicle: saline with Tween-80
[4] = dose: 25.0 mg/kg/injection, schedule: Q01DX009 (ip), vehicle: saline
[5] = dose: 50.0 mg/kg/injection, schedule: Q01DX009 (ip), vehicle: saline
[6] = dose: 100.0 mg/kg/injection, schedule: Q01DX001 (ip), vehicle: Klucel (hydroxypropylcellulose) (HPC)
[7] = dose: 100.0 mg/kg/injection, schedule: Q04DX003 (ip), vehicle: Klucel (hydroxypropylcellulose) (HPC)
[8] = dose: 100.0 mg/kg/injection, schedule: Q04DX003 (ip), vehicle: saline
[9] = dose: 200.0 mg/kg/injection, schedule: Q04DX003 (ip), vehicle: saline
[10] = dose: 100.0 mg/kg/injection, schedule: Q04DX002 (ip), vehicle: saline with Tween-80
[11] = dose: 200.0 mg/kg/injection, schedule: Q04DX002 (ip), vehicle: saline with Tween-80
[12] = dose: 400.0 mg/kg/injection, schedule: Q04DX002 (ip), vehicle: saline with Tween-80
[13] = dose: 100.0 mg/kg/injection, schedule: Q01DX001 (ip), vehicle: saline
[14] = dose: 200.0 mg/kg/injection, schedule: Q01DX001 (ip), vehicle: saline
[15] = dose: 400.0 mg/kg/injection, schedule: Q01DX001 (ip), vehicle: saline
[16] = dose: 100.0 mg/kg/injection, schedule: Q01DX009 (ip), vehicle: Klucel (hydroxypropylcellulose) (HPC)
[17] = dose: 200.0 mg/kg/injection, schedule: Q01DX009 (ip), vehicle: Klucel (hydroxypropylcellulose) (HPC)

Measured: T/C

NC(N)=S
inactive: [1] 103 % of control | dose: 100.0 mg/kg/injection, schedule: Q01DX015 (oral), vehicle: saline 97 % of control and 121 % of control | dose: 100.0 mg/kg/injection, schedule: Q04DX002 (ip), vehicle: saline 100 % of control | dose: 200.0 mg/kg/injection, schedule: Q01DX009 (ip), vehicle: saline 101 % of control | dose: 200.0 mg/kg/injection, schedule: Q01DX015 (oral), vehicle: saline 100 % of control and 121 % of control | dose: 200.0 mg/kg/injection, schedule: Q04DX002 (ip), vehicle: saline 113 % of control | dose: 400.0 mg/kg/injection, schedule: Q01DX009 (ip), vehicle: saline 103 % of control | dose: 400.0 mg/kg/injection, schedule: Q01DX015 (oral), vehicle: saline 122 % of control | dose: 400.0 mg/kg/injection, schedule: Q04DX002 (ip), vehicle: saline 95 % of control

Cc1ccc(NC(=O)OCCOc2cc(C)c(Cl)c(C)c2)cc1[N+](=O)[O-]
inactive: [2] 87 % of control | [3] 101 % of control | dose: 200.0 mg/kg/injection, schedule: Q01DX009 (ip), vehicle: saline with Tween-80 90 % of control

O=C(O)c1ccc(C(=O)Nc2cccc3ccccc23)c(C(=O)O)c1
inactive: dose: 100.0 mg/kg/injection, schedule: Q04DX002 (ip), vehicle: Klucel (hydroxypropylcellulose) (HPC) 106 % of control | dose: 200.0 mg/kg/injection, schedule: Q04DX002 (ip), vehicle: Klucel (hydroxypropylcellulose) (HPC) 103 % of control | dose: 400.0 mg/kg/injection, schedule: Q04DX002 (ip), vehicle: Klucel (hydroxypropylcellulose) (HPC) 103 % of control

C[N+](C)(C)C1=CC=CC=C1.Br[Br-]Br
inactive: dose: 12.5 mg/kg/injection, schedule: Q01DX009 (ip), vehicle: other 98 % of control | dose: 12.5 mg/kg/injection, schedule: Q04DX003 (ip), vehicle: Klucel (hydroxypropylcellulose) (HPC) 102 % of control | dose: 25.0 mg/kg/injection, schedule: Q01DX009 (ip), vehicle: other 98 % of control | [4] 104 % of control | dose: 25.0 mg/kg/injection, schedule: Q04DX003 (ip), vehicle: Klucel (hydroxypropylcellulose) (HPC) 102 % of control | dose: 50.0 mg/kg/injection, schedule: Q01DX009 (ip), vehicle: other 95 % of control | [5] 105 % of control | dose: 50.0 mg/kg/injection, schedule: Q04DX003 (ip), vehicle: Klucel (hydroxypropylcellulose) (HPC) 101 % of control | [6] 101 % of control | [7] 104 % of control

CNC(=O)CCC(=O)NC
inactive: dose: 75.0 mg/kg/injection, schedule: Q04DX003 (ip), vehicle: saline 95 % of control | [8] 100 % of control | dose: 150.0 mg/kg/injection, schedule: Q04DX003 (ip), vehicle: saline 98 % of control | [9] 102 % of control | dose: 300.0 mg/kg/injection, schedule: Q04DX003 (ip), vehicle: saline 95 % of control | dose: 400.0 mg/kg/injection, schedule: Q04DX003 (ip), vehicle: saline 111 % of control

O=C(Cc1ccccc1)Nc1ccc([N+](=O)[O-])cc1Cl
inactive: dose: 25.0 mg/kg/injection, schedule: Q01DX009 (ip), vehicle: saline with Tween-80 103 % of control | [2] 103 % of control | [3] 94 % of control and 100 % of control | [10] 104 % of control | dose: 150.0 mg/kg/injection, schedule: Q01DX009 (ip), vehicle: saline with Tween-80 92 % of control | [11] 101 % of control | dose: 225.0 mg/kg/injection, schedule: Q01DX009 (ip), vehicle: saline with Tween-80 97 % of control | dose: 335.0 mg/kg/injection, schedule: Q01DX009 (ip), vehicle: saline with Tween-80 103 % of control | [12] 96 % of control

C=C[Si](C)(OCC)OCC
inactive: [13] 93 % of control | [14] 90 % of control | [15] 101 % of control

CNC(=O)Nc1cc(Cl)c(OC)cc1OC
inactive: [16] 96 % of control | [17] 95 % of control | dose: 400.0 mg/kg/injection, schedule: Q01DX009 (ip), vehicle: Klucel (hydroxypropylcellulose) (HPC) 96 % of control

CNN
inactive: dose: 20.0 mg/kg/injection, schedule: Q04DX003 (ip), vehicle: saline 101 % of control | [4] 103 % of control | dose: 40.0 mg/kg/injection, schedule: Q04DX003 (ip), vehicle: saline 121 % of control | dose: 80.0 mg/kg/injection, schedule: Q04DX003 (ip), vehicle: saline 111 % of control | [8] 96 % of control

Oc1ccc(/C=N\Nc2ccccn2)c(O)c1
inactive: [16] 88 % of control | [17] 91 % of control

Nc1nc(=O)[nH]c(N)c1N
inactive: dose: 50.0 mg/kg/injection, schedule: Q04DX003 (ip), vehicle: saline 91 % of control | [13] 98 % of control | [8] 91 % of control | [14] 114 % of control | [9] 88 % of control

O=C(OCC(COC(=O)c1ccccc1)(COC(=O)c1ccccc1)[N+](=O)[O-])c1ccccc1
inactive: [7] 92 % of control | dose: 200.0 mg/kg/injection, schedule: Q04DX003 (ip), vehicle: Klucel (hydroxypropylcellulose) (HPC) 92 % of control | dose: 400.0 mg/kg/injection, schedule: Q04DX003 (ip), vehicle: Klucel (hydroxypropylcellulose) (HPC) 94 % of control

C1CCC2(CC1)CN2
inactive: [4] 103 % of control | [5] 100 % of control | [13] 97 % of control | [1] 104 % of control

CC1([N+](=O)[O-])COP(=O)(OCCc2ccccc2)OC1 (stereo not given)
inactive: dose: 50.0 mg/kg/injection, schedule: Q01DX001 (ip), vehicle: saline 95 % of control | [13] 98 % of control | [14] 93 % of control | [15] 98 % of control

CC(=O)Nc1cccc(N=Cc2ccc(N(CCOS(C)(=O)=O)CCOS(C)(=O)=O)cc2C)c1
inactive: dose: 8.0 mg/kg/injection, schedule: Q01DX009 (ip), vehicle: saline with Tween-80 120 % of control

NSc1ccc(N)s1
inactive: [10] 108 % of control | [11] 101 % of control | [12] 108 % of control

Cc1ccnc(NS(=O)(=O)c2ccc(N=Nc3c(N)nc(N)nc3N)cc2)n1
inactive: [13] 92 % of control | [14] 97 % of control | [15] 121 % of control

O=P(NC1CCCCC1)(NC1CCCCC1)c1ccccc1
inactive: dose: 100.0 mg/kg/injection, schedule: Q04DX002 (ip), vehicle: gum acacia 104 % of control | dose: 200.0 mg/kg/injection, schedule: Q04DX002 (ip), vehicle: gum acacia 93 % of control | dose: 400.0 mg/kg/injection, schedule: Q04DX002 (ip), vehicle: gum acacia 96 % of control

COc1cc(N)c2c(c1O)CN(C)CC2
inactive: dose: 75.0 mg/kg/injection, schedule: Q01DX001 (ip), vehicle: saline 95 % of control | dose: 150.0 mg/kg/injection, schedule: Q01DX001 (ip), vehicle: saline 100 % of control | dose: 300.0 mg/kg/injection, schedule: Q01DX001 (ip), vehicle: saline 86 % of control

CC(=O)OCC1OC(SP(C)C)C(OC(C)=O)C(OC(C)=O)C1OC(C)=O (stereo not given)
inactive: [6] 101 % of control | dose: 200.0 mg/kg/injection, schedule: Q01DX001 (ip), vehicle: Klucel (hydroxypropylcellulose) (HPC) 98 % of control | dose: 400.0 mg/kg/injection, schedule: Q01DX001 (ip), vehicle: Klucel (hydroxypropylcellulose) (HPC) 96 % of control
